Measured values as given in patent US9193714B2, “Fluorinated estrogen receptor modulators and uses thereof” (priority 2011, dated 2015).
Read-outs that look alike come from different tables or passages of the source.

Key:
ER-α = molecular target: T1, ER-α (Homo sapiens, UniProt P03372); experiment: Breast Cancer Cell ER-α in Cell Western Assay (SP1); format: cell-based; settings: MCF7, read-out: ER In-Cell Western Assay (SP1); Max Response
T1 construct: endogenous in cells; host or cells: MCF-7
Protocol: MCF-7 cells were adjusted to a concentration of 200,000 cells per mL in RPMI containing 10% charcoal-stripped FBS and 20 mM HEPES. 16 microliters of the cell suspension (3200 cells) was added to each well of a poly-D-lysine 384 well plate, and the cells were incubated overnight to allow the cells to adhere. The following day an eleven point, serial semilog dilution of each compound was added to the cells in 16 μL at a final concentration ranging from 0.3-0.000003 μM. At 4 or 24 hr post compound addition, the cells were fixed (10% formalin in PBS) for 20 minutes. Cells were permeablized in PBS 0.1% Triton and blocked with LICOR blocking buffer (50 μl/well, 90′). The wells were then incubated overnight at 4° C. with SP1 rabbit monoclonal Ab (Thermo Scientific) diluted 1:1000 in LICOR blocking buffer/0.1% Tween-20. Wells which were treated with blocking buffer with Tween but no antibody were used as a background control. Wells were washed with 0.1% Tween-20/PBS and then incubated in goat anti-rabbit IRDye™ 800 CW (LICOR Inc.; 1:1000) and DRAQ5 DNA dye (1:2000 for 2 mM stock) diluted in LICOR blocking buffer containing 0.1% Tween-20 and 0.01% SDS for 60 minutes. Cells were washed (50 μl/well, 5′ each) in 0.1% Tween-20/PBS. Plates were scanned on a LICOR Odyssey infrared imaging system. Integrated intensities in the 800 nm channel and 700 nm channel were measured to determine levels of ER and DNA respectively. Percent ER levels were determined as follows: (Integrated intensity 800 nm sample/integrated intensity 700 nm sample)/(Integrated intensity 800 nm untreated cells/integrated intensity 700 nm untreated cells)×100=% ER levels.

MCF-7 cells = experiment: Breast Cancer Cell Viability Assay (MCF7 Viability Assay); format: cell-based; settings: for IC50: Homo sapiens, MCF7, 120 h, read-out: MCF7 Viability Assay IC50
Protocol: MCF-7 cells were adjusted to a concentration of 20,000 cells per mL in RPMI containing 10% FBS and 20 mM HEPES. 16 microliters of the cell suspension (320 cells) was added to each well of a 384 well plate, and the cells were incubated overnight to allow the cells to adhere. The following day an eleven point, serial semilog dilution of each compound was added to the cells in 16 μL at a final concentration ranging from 0.3-0.000003 μM. After 5 days' compound exposure, 16 μL of CellTiter-GLo (Promega, Madison Wis.) was added to the cells the relative luminescence units (RLUs) of each well was determined. CellTiter-Glo added to 32 μL of medium without cells was used to obtain a background value. The Percent viability of each sample was determined as follows: (RLU sample-RLU background/RLU untreated cells-RLU background)×100=% viability.

[1] = MCF-7 cells, 5 days' compound exposure, CellTiter-Glo

T1 sequence (P03372 whole entry): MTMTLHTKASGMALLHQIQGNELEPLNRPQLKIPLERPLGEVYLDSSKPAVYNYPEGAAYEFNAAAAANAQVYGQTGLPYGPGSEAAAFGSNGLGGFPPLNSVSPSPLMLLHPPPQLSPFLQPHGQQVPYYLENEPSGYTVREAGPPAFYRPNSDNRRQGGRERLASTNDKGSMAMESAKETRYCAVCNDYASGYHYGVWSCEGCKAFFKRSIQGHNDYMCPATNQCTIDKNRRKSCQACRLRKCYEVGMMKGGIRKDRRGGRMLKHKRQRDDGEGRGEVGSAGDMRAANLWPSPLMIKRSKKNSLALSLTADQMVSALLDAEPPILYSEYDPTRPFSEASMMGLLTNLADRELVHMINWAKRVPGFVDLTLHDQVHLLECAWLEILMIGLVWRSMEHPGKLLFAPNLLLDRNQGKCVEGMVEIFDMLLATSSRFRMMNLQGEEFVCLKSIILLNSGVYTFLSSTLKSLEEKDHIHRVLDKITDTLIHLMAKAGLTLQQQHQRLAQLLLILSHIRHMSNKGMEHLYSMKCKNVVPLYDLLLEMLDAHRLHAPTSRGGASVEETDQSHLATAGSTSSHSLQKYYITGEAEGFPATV

SMILES | Emax (ER-α) [%] | IC50 (MCF-7 cells) [nM] | MCF7 Viability Assay Max Response (MCF-7 cells; [1]) | IC50 (MCF-7 cells; [1]) [nM]
CC1=C(c2cccc(O)c2)[C@@H](c2ccc(OCCN3CC[C@@H](CF)C3)cc2)Oc2ccc(O)cc21 (single isomer, unassigned) [Example 2a] | > 85 | > 1 | ++ (a single % value ≧ 50%) | 
CC1=C(c2cccc(O)c2)[C@H](c2ccc(OCCN3CC[C@@H](CF)C3)cc2)Oc2ccc(O)cc21 (single isomer, unassigned) [Example 2b] | > 85 | < 1 | ++ (a single % value ≧ 50%) | 
CC1=C(c2cccc(O)c2)[C@@H](c2ccc(OC[C@H](C)N3CC[C@@H](CF)C3)cc2)Oc2ccc(O)cc21 (single isomer, unassigned) [Example 3a] | > 85 | > 1 | ++ (a single % value ≧ 50%) | 
CC1=C(c2cccc(O)c2)[C@H](c2ccc(OC[C@H](C)N3CC[C@@H](CF)C3)cc2)Oc2ccc(O)cc21 (single isomer, unassigned) [Example 3b] | > 85 | < 1 | ++ (a single % value ≧ 50%) | 
CC1=C(c2cccc(O)c2)C(c2ccc(OCCN3CC(CF)C3)cc2)Oc2ccc(O)cc21 (stereo not shown) [Example 1, 2-(4-(2-(3-(Fluoromethyl)azetidin-1-yl)ethoxy)phenyl)-3-(3-hydroxyphenyl)-4-methyl-2H-chromen-6-ol] | > 85 | < 1 | ++ (a single % value ≧ 50%) | 
CC1=C(c2cccc(O)c2)C(c2ccc(OCCN3CC[C@@H](CF)C3)cc2)Oc2ccc(O)cc21 (stereo partly drawn) [Example 2, 2-(4-(2-((R)-3-(Fluoromethyl)pyrrolidin-1-yl)ethoxy)phenyl)-3-(3-hydroxyphenyl)-4-methyl-2H-chromen-6-ol] | > 85 | < 1 | ++ (a single % value ≧ 50%) | 
CC1=C(c2cccc(O)c2)C(c2ccc(OC[C@H](C)N3CC[C@@H](CF)C3)cc2)Oc2ccc(O)cc21 (stereo partly drawn) [Example 3, 2-(4-((S)-2-((R)-3-(Fluoromethyl)pyrrolidin-1-yl)propoxy)phenyl)-3-(3-hydroxyphenyl)-4-methyl-2H-chromen-6-ol] | > 85 | < 1 | ++ (a single % value ≧ 50%) | 
CC1=C(c2ccc(Cl)cc2)C(c2ccc(OCCN3CC[C@@H](CF)C3)cc2)Oc2ccc(O)cc21 (stereo partly drawn) [Example 4, 3-(4-Chlorophenyl)-2-(4-(2-((R)-3-(fluoromethyl)pyrrolidin-1-yl)ethoxy)phenyl)-4-methyl-2H-chromen-6-ol] | > 85 |  | ++ (a single % value ≧ 50%) | > 1
CC1=C(c2ccc(O)c(F)c2)C(c2ccc(OCCN3CC[C@@H](CF)C3)cc2)Oc2ccc(O)cc21 (stereo partly drawn) [Example 5, 3-(3-Fluoro-4-hydroxyphenyl)-2-(4-(2-((R)-3-(fluoromethyl)pyrrolidin-1-yl)ethoxy)phenyl)-4-methyl-2H-chromen-6-ol] | > 85 |  | ++ (a single % value ≧ 50%) | < 1
CC1=C(c2cc(O)c(F)c(F)c2)C(c2ccc(OCCN3CC[C@@H](CF)C3)cc2)Oc2ccc(O)cc21 (stereo partly drawn) [Example 6, 3-(3,4-Difluoro-5-hydroxyphenyl)-2-(4-(2-((R)-3-(fluoromethyl)pyrrolidin-1-yl)ethoxy)phenyl)-4-methyl-2H-chromen-6-ol] | > 85 |  | ++ (a single % value ≧ 50%) | < 1
CC1=C(c2cc(O)ccc2F)C(c2ccc(OCCN3CC[C@@H](CF)C3)cc2)Oc2ccc(O)cc21 (stereo partly drawn) [Example 7, 3-(2-Fluoro-5-hydroxyphenyl)-2-(4-(2-((R)-3-(fluoromethyl)pyrrolidin-1-yl)ethoxy)phenyl)-4-methyl-2H-chromen-6-ol] | > 85 |  | ++ (a single % value ≧ 50%) | < 1
CC1=C(c2ccc(F)c(O)c2)C(c2ccc(OCCN3CC[C@@H](CF)C3)cc2)Oc2ccc(O)cc21 (stereo partly drawn) [Example 8, 3-(4-Fluoro-3-hydroxyphenyl)-2-(4-(2-((R)-3-(fluoromethyl)pyrrolidin-1-yl)ethoxy)phenyl)-4-methyl-2H-chromen-6-ol] | > 85 |  | ++ (a single % value ≧ 50%) | > 1
CC1=C(c2cc(O)c(F)c(F)c2)C(c2ccc(OC[C@H](C)N3CC[C@@H](CF)C3)cc2)Oc2ccc(O)cc21 (stereo partly drawn) [Example 9, 3-(3,4-Difluoro-5-hydroxyphenyl)-2-(4-((S)-2-((R)-3-(fluoromethyl)pyrrolidin-1-yl)propoxy)phenyl)-4-methyl-2H-chromen-6-ol] | > 85 |  | ++ (a single % value ≧ 50%) | < 1
CC1=C(c2cc(O)cc(F)c2)C(c2ccc(OCCN3CC[C@@H](CF)C3)cc2)Oc2ccc(O)cc21 (stereo partly drawn) [Example 10, 3-(3-Fluoro-5-hydroxyphenyl)-2-(4-(2-((R)-3-(fluoromethyl)pyrrolidin-1-yl)ethoxy)phenyl)-4-methyl-2H-chromen-6-ol] | > 85 |  | ++ (a single % value ≧ 50%) | < 1
CC1=C(c2ccc(F)c(O)c2)C(c2ccc(OC[C@H](C)N3CC[C@@H](CF)C3)cc2)Oc2ccc(O)cc21 (stereo partly drawn) [Example 11, 3-(4-Fluoro-3-hydroxyphenyl)-2-(4-((S)-2-((R)-3-(fluoromethyl)pyrrolidin-1-yl)propoxy)phenyl)-4-methyl-2H-chromen-6-ol] | > 85 |  | ++ (a single % value ≧ 50%) | < 1
CC1=C(c2cc(O)cc(F)c2)C(c2ccc(OC[C@H](C)N3CC[C@@H](CF)C3)cc2)Oc2ccc(O)cc21 (stereo partly drawn) [Example 12, 3-(3-Fluoro-5-hydroxyphenyl)-2-(4-((S)-2-((R)-3-(fluoromethyl)pyrrolidin-1-yl)propoxy)phenyl)-4-methyl-2H-chromen-6-ol] | > 85 |  | ++ (a single % value ≧ 50%) | < 1
CC1=C(c2ccc(O)c(F)c2)C(c2ccc(OC[C@H](C)N3CC[C@@H](CF)C3)cc2)Oc2ccc(O)cc21 (stereo partly drawn) [Example 13, 3-(3-Fluoro-4-hydroxyphenyl)-2-(4-((S)-2-((R)-3-(fluoromethyl)pyrrolidin-1-yl)propoxy)phenyl)-4-methyl-2H-chromen-6-ol] | > 85 |  | ++ (a single % value ≧ 50%) | < 1
CC1=C(c2cc(O)ccc2F)C(c2ccc(OC[C@H](C)N3CC[C@@H](CF)C3)cc2)Oc2ccc(O)cc21 (stereo partly drawn) [Example 14, 3-(2-Fluoro-5-hydroxyphenyl)-2-(4-((S)-2-((R)-3-(fluoromethyl)pyrrolidin-1-yl)propoxy)phenyl)-4-methyl-2H-chromen-6-ol] | > 85 |  | ++ (a single % value ≧ 50%) | < 1
CC1=C(c2ccc(Cl)cc2)C(c2ccc(OC[C@H](C)N3CC[C@@H](CF)C3)cc2)Oc2ccc(O)cc21 (stereo partly drawn) [Example 15, 3-(4-Chlorophenyl)-2-(4-((S)-2-((R)-3-(fluoromethyl)pyrrolidin-1-yl)propoxy)phenyl)-4-methyl-2H-chromen-6-ol] | > 85 |  | ++ (a single % value ≧ 50%) | > 1
CC1=C(c2cccc(O)c2)C(c2ccc(OCCN3CCC(CF)CC3)cc2)Oc2ccc(O)cc21 (stereo not shown) [Example 19, 2-(4-(2-(4-(Fluoromethyl)piperidin-1-yl)ethoxy)phenyl)-3-(3-hydroxyphenyl)-4-methyl-2H-chromen-6-ol] | 60 to 85 |  |  | 
